Patent publication US20220380383A1, “NEUROPROTECTIVE PDI MODULATING SMALL MOLECULES AND METHODS OF USE THEREOF” (THE TRUSTEES OF COLUMBIA UNIVERSITY IN THE CITY OF NEW YORK, priority 2018, published 2022)
“Also recorded” adds a separate entry of the source.

Legend:
[1] = system: striatal medium spiny neurons in brain slice explants co-transfected with YFP and mHTT; experiment: HD brain slice assay; format: cell-based, rat
Description: Resonances with large chemical shifts are labeled in green. Rat coronal brain slice explants co-transfected with YFP and Tau-4R (FIG. 16B) or striatal brain slice explants co-transfected with YFP and mHTT (FIG. 16C) were treated with LC-43 or DMSO carrier-only for 3 days. The respective regions of each brain slice were then scored for numbers of healthy (FIG. 16B) pyramidal or (FIG. 16C) medium spiny neurons remaining. Data are normalized to the negative control condition set to 100% and plotted as means±SEM. In FIG. 16D, The confocal images shown are maximal z-stacks of 0.5 μm steps (˜20 images per stack). (Bottom) Reduction of neuronal redox state by LC-43. Left, Primary neurons were co-transfected with mCherry (to positively identify transfected neurons) and the genetically encoded ratiometric redox reporter roGFP2. Four days later, the culture medium was changed into an identical formulation except without conventional antioxidant additives. […]
Brain slice explants were prepared and transfected as previously described (Reinhart et al., 2011). […] Striatal medium spiny neurons (MSNs) expressing YFP were visualized under fluorescence microscopy and identified based on their location within brain slices and their characteristic morphology.

Sigma σ1 = Sigma σ1 (Homo sapiens, UniProt Q99720); experiment: Off-target panel, Sigma σ1; format: binding; conditions: Conc. 3 μM
AChE = molecular target: T1, AChE (Homo sapiens, UniProt P22303); experiment: Safety47 panel non-kinase enzyme AChE; format: biochemical; conditions: Inhibitor mode; 3 μM
T1 construct: CEREP (CRO panel)
Text: (§1) LOC14 was also submitted for testing in CEREP's Safety47 panel. CEREP is a CRO specializing in preclinical research, discovery and development of new pharmaceutical drugs.

Cannabinoid CB1 = Cannabinoid CB1 (Homo sapiens, UniProt P21554); experiment: Off-target panel, Cannabinoid CB1; format: binding; conditions: Conc. 3 μM
ST14A mHTTQ120 cells = experiment: Rescue of ST14A mHTTQ120 cells (39° C., serum starved, CellTiter-Glo); format: cell-based, rat; conditions: 48 hours
Text: Having elucidated the molecular mechanism of LOC14's binding to PDI, we next tested whether PDI modulation with LOC14 would be effective in neurodegenerative disease models. First, we evaluated LOC14's neuroprotection in rat neuron-like PC12 cells stably transfected with an inducible plasmid for truncated mutant huntingtin protein (mHTT^Q103). […] We next evaluated the activity of LOC14 in cells that more closely represent the medium-size spiny neurons affected in Huntington Disease patients. We used rat embryonic day 14 striatal neuronal cells (ST14A) immortalized by transduction of temperature-sensitive SV40 large T antigen (Cattaneo and Conti, 1998; Ehrlich et al. 2001; Rigamonti et al. 2000). Under serum deprivation and at 39° C., where large T antigen is degraded, ST14A cells undergo cell death within 48-72 hours. This death was rescued by treatment with LOC14 (FIG. 13B).

Muscarinic M3 = Muscarinic M3 (Homo sapiens, UniProt P20309); experiment: Off-target panel, Muscarinic M3; format: binding; conditions: Conc. 3 μM
GABAA = experiment: Safety47 panel ion channel GABAA; format: cell-based, human; conditions: 3 μM
Text: as §1

AR = molecular target: T2, AR (Homo sapiens, UniProt P10275); experiment: Safety47 panel nuclear hormone receptor AR; format: cell-based; conditions: 3 μM
T2 construct: CEREP (CRO panel)
Text: as §1

VEGFR2 = molecular target: T3, VEGFR2 (Homo sapiens, UniProt P35968); experiment: Safety47 panel kinase VEGFR2; format: biochemical; conditions: Inhibitor mode; 3 μM
T3 construct: CEREP (CRO, Safety47 panel)
Text: as §1

Adenosine A2A = Adenosine A2A (Homo sapiens, UniProt P29274); experiment: Off-target panel, Adenosine A2A; format: binding; conditions: Conc. 3 μM
Dopamine D2S = Dopamine D2S (Homo sapiens, UniProt P14416); experiment: Off-target panel, Dopamine D2S; format: binding; conditions: Conc. 3 μM
47 human targets = experiment: CEREP Safety47 panel (summary); conditions: 3 μM
Text: as §1

[2] = molecular target: Nicotinic Acetylcholine α1, Bungarotoxin (Homo sapiens, UniProt P02708+P07510+Q07001); experiment: Off-target panel, Nicotinic Acetylcholine α1; format: binding; conditions: read-out: % Inh.
Prostanoid EP4 = Prostanoid EP4 (Homo sapiens, UniProt P35408); experiment: Off-target panel, Prostanoid EP4; format: binding; conditions: Conc. 3 μM
nAChR(a4/b2) = molecular target: T4, nAChR(a4/b2) (Homo sapiens, UniProt P17787+P43681); experiment: Safety47 panel ion channel nAChR(a4/b2); format: cell-based; conditions: 3 μM
T4 construct: CEREP (CRO panel)
Text: as §1

Potassium Channel hERG = Potassium Channel hERG (Homo sapiens, UniProt Q12809)

T2 sequence (P10275 whole entry): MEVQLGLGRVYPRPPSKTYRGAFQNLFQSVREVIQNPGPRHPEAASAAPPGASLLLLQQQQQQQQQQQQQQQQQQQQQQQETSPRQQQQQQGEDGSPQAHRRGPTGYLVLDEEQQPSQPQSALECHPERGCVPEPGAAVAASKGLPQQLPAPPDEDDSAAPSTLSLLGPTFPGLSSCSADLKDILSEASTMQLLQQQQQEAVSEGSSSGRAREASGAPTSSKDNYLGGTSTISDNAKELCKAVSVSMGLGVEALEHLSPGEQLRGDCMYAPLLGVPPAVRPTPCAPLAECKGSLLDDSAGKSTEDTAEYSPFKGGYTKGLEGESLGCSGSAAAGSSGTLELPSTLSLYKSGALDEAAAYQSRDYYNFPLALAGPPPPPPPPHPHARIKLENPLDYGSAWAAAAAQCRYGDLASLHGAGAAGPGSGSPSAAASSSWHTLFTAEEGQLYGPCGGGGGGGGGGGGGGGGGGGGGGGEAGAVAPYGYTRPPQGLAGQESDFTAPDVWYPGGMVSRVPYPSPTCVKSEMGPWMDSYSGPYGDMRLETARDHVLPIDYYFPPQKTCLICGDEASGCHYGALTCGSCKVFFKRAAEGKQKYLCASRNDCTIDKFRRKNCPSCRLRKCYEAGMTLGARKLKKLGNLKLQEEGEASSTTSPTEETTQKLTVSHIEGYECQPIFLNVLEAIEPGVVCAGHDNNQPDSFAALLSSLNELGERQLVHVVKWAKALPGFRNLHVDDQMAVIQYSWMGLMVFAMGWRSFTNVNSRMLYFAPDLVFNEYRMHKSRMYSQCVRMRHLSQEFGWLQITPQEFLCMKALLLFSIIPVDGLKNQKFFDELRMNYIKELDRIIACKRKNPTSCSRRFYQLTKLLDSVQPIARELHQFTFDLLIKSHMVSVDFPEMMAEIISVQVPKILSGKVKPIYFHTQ
T4 sequence (P43681 29-627 limits assumed): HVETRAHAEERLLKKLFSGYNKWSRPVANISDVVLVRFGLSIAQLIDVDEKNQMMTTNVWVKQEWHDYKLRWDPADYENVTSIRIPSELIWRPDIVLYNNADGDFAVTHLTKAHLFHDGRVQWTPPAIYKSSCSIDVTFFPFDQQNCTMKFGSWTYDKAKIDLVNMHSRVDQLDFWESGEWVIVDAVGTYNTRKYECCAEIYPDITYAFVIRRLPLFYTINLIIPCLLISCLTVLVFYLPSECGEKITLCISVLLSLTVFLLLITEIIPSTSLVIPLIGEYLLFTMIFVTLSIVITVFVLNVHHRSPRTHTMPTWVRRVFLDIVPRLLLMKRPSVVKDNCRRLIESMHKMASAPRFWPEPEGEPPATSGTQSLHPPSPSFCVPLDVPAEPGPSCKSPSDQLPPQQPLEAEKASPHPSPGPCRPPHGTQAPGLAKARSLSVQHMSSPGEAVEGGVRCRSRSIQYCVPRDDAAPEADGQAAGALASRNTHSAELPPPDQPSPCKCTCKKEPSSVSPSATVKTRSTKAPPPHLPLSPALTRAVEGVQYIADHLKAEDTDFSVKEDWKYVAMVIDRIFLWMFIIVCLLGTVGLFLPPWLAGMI
T4 sequence (P17787 26-502): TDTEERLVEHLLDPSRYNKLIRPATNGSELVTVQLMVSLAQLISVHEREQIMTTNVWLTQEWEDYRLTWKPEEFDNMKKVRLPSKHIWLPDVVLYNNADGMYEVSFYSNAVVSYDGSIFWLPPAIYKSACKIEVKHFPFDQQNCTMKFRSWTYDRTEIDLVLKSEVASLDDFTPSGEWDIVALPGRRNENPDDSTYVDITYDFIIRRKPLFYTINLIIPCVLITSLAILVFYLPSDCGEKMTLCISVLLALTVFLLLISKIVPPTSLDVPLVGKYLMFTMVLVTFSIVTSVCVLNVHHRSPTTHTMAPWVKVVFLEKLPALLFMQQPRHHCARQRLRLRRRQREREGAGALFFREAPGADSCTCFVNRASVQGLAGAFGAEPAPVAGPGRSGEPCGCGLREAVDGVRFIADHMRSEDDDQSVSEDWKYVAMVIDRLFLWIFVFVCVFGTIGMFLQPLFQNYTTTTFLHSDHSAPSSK
Chain of Cannabinoid CB1 (P21554 whole entry): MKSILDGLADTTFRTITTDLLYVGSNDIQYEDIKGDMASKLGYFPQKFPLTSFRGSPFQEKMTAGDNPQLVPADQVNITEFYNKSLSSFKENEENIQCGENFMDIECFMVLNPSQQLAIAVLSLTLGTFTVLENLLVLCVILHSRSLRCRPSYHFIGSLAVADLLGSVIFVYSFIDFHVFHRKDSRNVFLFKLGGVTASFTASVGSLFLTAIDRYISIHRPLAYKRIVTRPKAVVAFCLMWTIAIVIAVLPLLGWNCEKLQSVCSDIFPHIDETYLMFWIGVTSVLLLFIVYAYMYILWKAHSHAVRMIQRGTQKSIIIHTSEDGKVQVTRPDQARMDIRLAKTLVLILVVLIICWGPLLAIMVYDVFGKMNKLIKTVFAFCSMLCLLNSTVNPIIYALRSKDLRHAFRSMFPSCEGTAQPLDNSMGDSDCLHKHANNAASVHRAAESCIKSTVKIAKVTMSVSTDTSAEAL
T1 sequence (P22303 32-614): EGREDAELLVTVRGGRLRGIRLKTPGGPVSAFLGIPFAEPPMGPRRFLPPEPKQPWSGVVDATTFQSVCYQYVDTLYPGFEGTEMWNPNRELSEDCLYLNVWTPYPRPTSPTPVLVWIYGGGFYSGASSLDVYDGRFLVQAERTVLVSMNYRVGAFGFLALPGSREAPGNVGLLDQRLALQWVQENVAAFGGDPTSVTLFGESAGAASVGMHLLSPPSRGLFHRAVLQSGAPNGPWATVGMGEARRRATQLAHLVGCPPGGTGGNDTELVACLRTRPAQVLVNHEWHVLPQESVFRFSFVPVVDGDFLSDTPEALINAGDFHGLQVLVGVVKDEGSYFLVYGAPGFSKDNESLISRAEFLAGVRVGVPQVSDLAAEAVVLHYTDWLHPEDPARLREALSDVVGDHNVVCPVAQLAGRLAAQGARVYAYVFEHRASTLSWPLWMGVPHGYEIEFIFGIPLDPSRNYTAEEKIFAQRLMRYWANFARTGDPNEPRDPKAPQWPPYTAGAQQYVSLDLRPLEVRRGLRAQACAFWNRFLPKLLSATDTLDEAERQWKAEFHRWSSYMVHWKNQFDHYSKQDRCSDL
T3 sequence (P35968 20-1356): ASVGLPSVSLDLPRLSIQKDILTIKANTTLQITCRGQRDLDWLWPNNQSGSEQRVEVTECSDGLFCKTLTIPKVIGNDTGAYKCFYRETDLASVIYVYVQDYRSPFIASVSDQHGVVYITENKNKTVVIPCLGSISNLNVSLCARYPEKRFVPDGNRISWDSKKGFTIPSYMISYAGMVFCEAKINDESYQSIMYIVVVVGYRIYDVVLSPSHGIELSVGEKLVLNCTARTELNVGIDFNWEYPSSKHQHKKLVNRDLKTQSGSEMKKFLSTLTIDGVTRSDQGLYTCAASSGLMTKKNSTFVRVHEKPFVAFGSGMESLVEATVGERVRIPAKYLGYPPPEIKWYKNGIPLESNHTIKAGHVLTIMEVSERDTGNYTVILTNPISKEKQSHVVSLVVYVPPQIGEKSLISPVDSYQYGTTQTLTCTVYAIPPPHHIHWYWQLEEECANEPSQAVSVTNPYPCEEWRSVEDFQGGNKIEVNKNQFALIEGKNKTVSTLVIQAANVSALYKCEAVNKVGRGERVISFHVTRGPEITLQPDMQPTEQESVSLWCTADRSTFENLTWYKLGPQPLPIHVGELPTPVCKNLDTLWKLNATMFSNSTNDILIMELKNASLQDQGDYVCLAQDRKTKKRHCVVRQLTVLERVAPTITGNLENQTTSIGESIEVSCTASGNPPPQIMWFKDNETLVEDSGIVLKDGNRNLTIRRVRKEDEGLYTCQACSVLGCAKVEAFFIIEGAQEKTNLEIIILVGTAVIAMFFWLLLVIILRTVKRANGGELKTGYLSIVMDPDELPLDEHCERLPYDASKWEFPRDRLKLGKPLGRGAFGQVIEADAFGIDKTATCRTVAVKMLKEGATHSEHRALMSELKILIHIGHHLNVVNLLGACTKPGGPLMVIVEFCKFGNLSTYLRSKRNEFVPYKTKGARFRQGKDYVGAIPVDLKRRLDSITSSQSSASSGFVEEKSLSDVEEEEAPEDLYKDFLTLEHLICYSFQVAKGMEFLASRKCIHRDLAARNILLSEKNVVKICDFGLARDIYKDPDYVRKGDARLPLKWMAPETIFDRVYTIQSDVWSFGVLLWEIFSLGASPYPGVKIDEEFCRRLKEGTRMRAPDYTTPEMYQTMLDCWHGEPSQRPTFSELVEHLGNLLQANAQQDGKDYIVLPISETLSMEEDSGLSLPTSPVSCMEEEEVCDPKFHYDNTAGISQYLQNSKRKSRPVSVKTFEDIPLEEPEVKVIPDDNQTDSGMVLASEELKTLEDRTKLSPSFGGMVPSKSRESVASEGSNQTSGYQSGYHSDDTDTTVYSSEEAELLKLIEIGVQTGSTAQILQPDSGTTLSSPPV
Chain of Dopamine D2S (P14416 1-414 isoform P14416-2): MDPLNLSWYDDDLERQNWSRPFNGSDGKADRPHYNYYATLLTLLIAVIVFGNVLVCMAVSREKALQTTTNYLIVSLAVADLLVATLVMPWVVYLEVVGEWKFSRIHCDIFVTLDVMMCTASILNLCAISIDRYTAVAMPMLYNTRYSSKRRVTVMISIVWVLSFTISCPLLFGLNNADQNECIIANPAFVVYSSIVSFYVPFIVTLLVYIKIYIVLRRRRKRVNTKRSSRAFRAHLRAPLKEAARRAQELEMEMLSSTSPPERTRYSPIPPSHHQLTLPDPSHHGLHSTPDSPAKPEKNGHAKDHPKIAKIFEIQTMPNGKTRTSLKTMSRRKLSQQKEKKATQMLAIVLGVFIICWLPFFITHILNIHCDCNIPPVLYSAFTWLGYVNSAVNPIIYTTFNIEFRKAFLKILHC
Chain of Sigma σ1 (Q99720 whole entry): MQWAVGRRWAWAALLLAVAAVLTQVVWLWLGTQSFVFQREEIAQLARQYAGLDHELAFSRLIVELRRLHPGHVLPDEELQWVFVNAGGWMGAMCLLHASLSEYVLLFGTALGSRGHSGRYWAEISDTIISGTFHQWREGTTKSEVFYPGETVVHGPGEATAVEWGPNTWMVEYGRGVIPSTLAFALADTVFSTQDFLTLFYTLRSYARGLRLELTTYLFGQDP

O=C(C1CC1)N1CCN(Cn2sc3c(F)cccc3c2=O)CC1 [LC-43]
rescue of medium spiny neurons in HD brain slice ([1]; 3 days treatment): dose-dependent rescue; also recorded: robust neuroprotection | concentration that provided peak rescue ([1]; HD brain slice assay): 10 µM

O=C(C1CC1)N1CCN(Cn2sc3ccccc3c2=O)CC1 [LOC14]
inhibition at 3 µM (Sigma σ1): -8% | Average (AChE): 2.8 | inhibition at 3 µM (Cannabinoid CB1): -22% | EC100 (ST14A mHTTQ120 cells): 6 nM | inhibition at 3 µM (Muscarinic M3): -4% | Average (GABAA; Blocker mode): 5.1 | Average (GABAA; Opener mode): 0.0 | Average (AR; Agonist mode): 0.0 | Average (AR; Antagonist mode): 5.4 | Average (VEGFR2): 17.2 | inhibition at 3 µM (Adenosine A2A): -4% | inhibition at 3 µM (Dopamine D2S): 0% | off-target effects in Safety47 panel (47 human targets): no significant off-target effects | inhibition at 3 µM [2]: 11% | inhibition at 3 µM (Prostanoid EP4): 32% | Average (nAChR(a4/b2); Blocker mode): 10.1 | Average (nAChR(a4/b2); Opener mode): 0.0 | binding to the hERG receptor (Potassium Channel hERG): does not bind to the hERG receptor
